Structures can show the parent of a compound that is named as a salt.
How the values were obtained:
α2C = molecular target: T1, α2C (Homo sapiens, UniProt P18825); conditions: ref Schindler et al., 2019; cited from earlier work
T1 sequence (P18825 1-462): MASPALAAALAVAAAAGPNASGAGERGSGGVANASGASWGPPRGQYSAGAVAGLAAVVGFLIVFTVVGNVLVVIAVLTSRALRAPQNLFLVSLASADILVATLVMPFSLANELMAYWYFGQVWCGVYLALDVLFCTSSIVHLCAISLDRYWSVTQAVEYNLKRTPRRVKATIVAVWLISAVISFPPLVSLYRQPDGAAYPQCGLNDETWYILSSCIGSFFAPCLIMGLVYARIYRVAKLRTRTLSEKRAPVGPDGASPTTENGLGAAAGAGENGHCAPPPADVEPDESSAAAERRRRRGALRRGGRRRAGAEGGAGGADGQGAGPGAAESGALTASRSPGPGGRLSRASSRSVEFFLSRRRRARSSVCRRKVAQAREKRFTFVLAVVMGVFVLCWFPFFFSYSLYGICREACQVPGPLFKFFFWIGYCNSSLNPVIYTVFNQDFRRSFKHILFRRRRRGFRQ

5-HT2B = 5-HT2B (Homo sapiens, UniProt P41595); conditions: ref Schindler et al., 2019; cited from earlier work
5-HT2B, sequence (P41595 whole entry): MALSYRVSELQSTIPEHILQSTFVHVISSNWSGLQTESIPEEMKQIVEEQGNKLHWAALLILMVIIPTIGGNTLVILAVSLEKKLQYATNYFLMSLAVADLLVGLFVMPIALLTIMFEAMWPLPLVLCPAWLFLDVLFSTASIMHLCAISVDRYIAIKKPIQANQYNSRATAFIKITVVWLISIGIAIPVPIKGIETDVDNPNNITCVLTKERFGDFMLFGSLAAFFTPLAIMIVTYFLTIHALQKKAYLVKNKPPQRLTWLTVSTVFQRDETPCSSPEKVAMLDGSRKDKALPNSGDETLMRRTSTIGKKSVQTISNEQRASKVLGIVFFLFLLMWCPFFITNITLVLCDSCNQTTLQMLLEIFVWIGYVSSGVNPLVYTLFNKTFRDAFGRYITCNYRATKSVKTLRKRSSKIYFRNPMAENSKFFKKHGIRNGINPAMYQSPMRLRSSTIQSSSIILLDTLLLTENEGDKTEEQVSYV

α2A = molecular target: T2, α2A (Homo sapiens, UniProt P08913); conditions: ref Schindler et al., 2019; cited from earlier work
T2 sequence (P08913 1-465): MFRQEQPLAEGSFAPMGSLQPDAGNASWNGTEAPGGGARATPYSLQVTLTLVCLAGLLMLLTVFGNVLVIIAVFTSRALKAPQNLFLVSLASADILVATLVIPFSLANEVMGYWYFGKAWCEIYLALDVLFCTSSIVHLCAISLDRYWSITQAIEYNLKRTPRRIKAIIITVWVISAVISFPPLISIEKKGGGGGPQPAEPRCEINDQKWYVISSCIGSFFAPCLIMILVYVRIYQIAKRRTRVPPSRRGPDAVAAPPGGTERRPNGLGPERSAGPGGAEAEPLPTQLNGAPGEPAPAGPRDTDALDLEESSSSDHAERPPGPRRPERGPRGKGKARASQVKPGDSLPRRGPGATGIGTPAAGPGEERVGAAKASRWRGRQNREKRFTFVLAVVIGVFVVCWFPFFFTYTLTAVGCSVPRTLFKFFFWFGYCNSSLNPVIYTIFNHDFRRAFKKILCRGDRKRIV

5-HT1A = molecular target: T3, 5-HT1A (Homo sapiens, UniProt P08908); conditions: ref Schindler et al., 2019; cited from earlier work
T3 sequence (P08908 1-422): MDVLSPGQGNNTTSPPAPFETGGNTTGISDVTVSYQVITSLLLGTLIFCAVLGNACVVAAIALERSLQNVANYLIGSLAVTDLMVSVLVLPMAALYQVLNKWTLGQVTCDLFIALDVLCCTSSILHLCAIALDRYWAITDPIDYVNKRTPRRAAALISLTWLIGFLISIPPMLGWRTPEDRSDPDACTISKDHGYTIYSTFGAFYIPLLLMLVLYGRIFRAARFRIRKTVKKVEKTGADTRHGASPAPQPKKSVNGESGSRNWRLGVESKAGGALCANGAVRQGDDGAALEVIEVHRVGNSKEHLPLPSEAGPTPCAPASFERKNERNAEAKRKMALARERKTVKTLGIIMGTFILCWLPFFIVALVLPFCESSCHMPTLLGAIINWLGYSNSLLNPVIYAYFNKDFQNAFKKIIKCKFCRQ

male Sprague-Dawley rats = test: In vivo biotelemetry; conditions: s.c., amphetamine 0.1–3 mg/kg, PEA analogs 1–10 mg/kg
humans [1] = conditions: ref Chait et al., 1985; cited from earlier work
humans [2] = conditions: ref Brauer and de Wit, 1996, Kelly et al., 2006, Harvanko et al., 2016; cited from earlier work
rats = conditions: ref Schindler et al., 2019, cited from earlier work

| SMILES | Ki (α2C) [nM] | Ki (5-HT2B) [nM] | Ki (α2A) [nM] | Ki (5-HT1A) [nM] | effect on core body temperature (male Sprague-Dawley rats) | threshold oral dose that can be discriminated (humans [1]) [mg] | lowest oral doses that increase BP and HR (humans [2]) [mg] | effect on HR or activity (rats; at the doses tested) | reduction of potency to increase BP compared with amphetamine (rats) |
| --- | --- | --- | --- | --- | --- | --- | --- | --- | --- |
| C[C@H](N)Cc1ccccc1 [Amphetamine, (S)-amphetamine sulfate] | 171 | 971 | 420 | 2630 | did not significantly affect body temperature | 5 | 7.5 to 10 |  |  |
| CC(CN)c1ccccc1 (stereo not drawn) [BMPEA, β-methylphenethylamine] |  |  |  |  |  |  |  | did not increase HR or activity | about 30 fold |

Source: PMC7788351 (The Journal of Pharmacology and Experimental Therapeutics, 2021)
